Tested on: murine TASK-1 T381A mutant
Experiment: T381A mutant TASK-1 current in CHO cells
Type: cell-based, mouse
Conditions: +30 mV, C-PAF 185 nM
Experimental: pCMV-TASK1 (cTBAK) consists of a 1.9 kb sequence of murine TASK-1 inserted in pcDNA3.1 (a kind gift of Dr. Yoshihisa Kurachi, University of Osaka, Japan) and has been previously described (Leonoudakis D et al. (1998) J Neurosci 18: 868-877). pEGFP-C1 and pIRES-EGFP were purchased from Clontech. pTIE (TASK1-IRES-EGFP) was constructed by inserting a 1.9 kb EcoR1 fragment from pCMV-TASK1 into EcoR1 digested pIRES-EGFP. Site-directed mutagenesis was performed on pTIE using the Quik-Change kit (Stratagene) following the manufacturer's instructions. […]
Cells were either co-transfected with pCMV-TASK1 together with pEGFP-C1 (1 μg total, 3:1) or transfected with […] or T381A-pTIE (1 μg). 48 h after the transfection the cells were checked under the microscope for green fluorescence. […]
The myocyte suspension or the coverslip with CHO cells was placed into a perfusion chamber, mounted on the stage of an inverted microscope. […] Membrane potential and current were measured in the whole cell configuration using borosilicate glass pipettes with a tip resistance between […] and filled with a pipette solution containing (mM): aspartic acid, 130; KOH, 146; NaCl, 10; CaCl2, 2; EGTA, 5; HEPES, 10; MGATP, 2; pH 7.2. […] Myocytes treated with the peptides were monitored continuously beginning immediately after rupture to detect the occurrence of any arrhythmias during dialysis of the peptide. […]

Q: CCCCCCCCCCCCCCCCOC[C@H](COP(=O)([O-])OCC[N+](C)(C)C)OC(=O)NC [C-PAF, carbamyl-platelet-activating factor] was tested. Which “maximal current in the presence of C-PAF” value did it give?
A: 44.2±7 pA/pF
